Assay results: paper PMC9569420 (Communications Biology, 2022)

What was measured:
Aurora B = target: T1, Aurora B (Homo sapiens, UniProt Q96GD4); assay: HotSpot kinase assay; type: biochemical; settings: read-out: % Enzyme Activity (relative to DMSO controls)
T1 construct: purchased Reaction Biology Corporation

AURORA C = target: T2, AURORA C (Homo sapiens, UniProt Q9UQB9); assay: HotSpot kinase assay; type: biochemical; settings: read-out: % Enzyme Activity (relative to DMSO controls)
T2 construct: purchased Reaction Biology Corporation

BMX/ETK = target: T3, BMX/ETK (Homo sapiens, UniProt P51813); assay: HotSpot kinase assay; type: biochemical; settings: read-out: % Enzyme Activity (relative to DMSO controls)
T3 construct: purchased Reaction Biology Corporation
T3 sequence (P51813 whole entry): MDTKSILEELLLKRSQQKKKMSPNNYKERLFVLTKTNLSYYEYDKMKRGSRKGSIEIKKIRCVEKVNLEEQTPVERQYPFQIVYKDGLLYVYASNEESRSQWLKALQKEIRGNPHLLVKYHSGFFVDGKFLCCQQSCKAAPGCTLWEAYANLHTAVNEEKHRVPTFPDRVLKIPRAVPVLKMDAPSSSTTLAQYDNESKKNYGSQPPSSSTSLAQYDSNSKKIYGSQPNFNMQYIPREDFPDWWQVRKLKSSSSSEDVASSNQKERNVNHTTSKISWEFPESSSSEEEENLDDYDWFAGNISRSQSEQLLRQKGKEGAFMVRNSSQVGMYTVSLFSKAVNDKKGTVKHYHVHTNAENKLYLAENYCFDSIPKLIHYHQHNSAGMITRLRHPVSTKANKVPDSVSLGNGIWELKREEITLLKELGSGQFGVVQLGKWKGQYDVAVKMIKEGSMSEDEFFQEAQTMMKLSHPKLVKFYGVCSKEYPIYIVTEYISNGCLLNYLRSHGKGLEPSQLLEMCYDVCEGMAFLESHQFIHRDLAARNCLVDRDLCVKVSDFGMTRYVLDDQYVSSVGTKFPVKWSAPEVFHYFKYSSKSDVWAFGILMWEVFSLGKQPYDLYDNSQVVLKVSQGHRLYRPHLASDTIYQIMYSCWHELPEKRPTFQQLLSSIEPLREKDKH

BTK = target: T4, BTK (Homo sapiens, UniProt Q06187); assay: HotSpot kinase assay; type: biochemical; settings: read-out: % Enzyme Activity (relative to DMSO controls)
T4 construct: purchased Reaction Biology Corporation

CDK1/cyclin B = target: T5, CDK1/cyclin B (Homo sapiens, UniProt P06493); assay: HotSpot kinase assay; type: biochemical; settings: read-out: % Enzyme Activity (relative to DMSO controls)
T5 construct: purchased Reaction Biology Corporation

CDK16/cyclin Y (PCTAIRE) = target: T6, CDK16/cyclin Y (PCTAIRE) (Homo sapiens, UniProt Q00536); assay: HotSpot kinase assay; type: biochemical; settings: read-out: % Enzyme Activity (relative to DMSO controls)
T6 construct: purchased Reaction Biology Corporation

CDK2/cyclin O = target: T7, CDK2/cyclin O (Homo sapiens, UniProt P24941); assay: HotSpot kinase assay; type: biochemical; settings: read-out: % Enzyme Activity (relative to DMSO controls)
T7 construct: purchased Reaction Biology Corporation

CDK3/cyclin E = target: T8, CDK3/cyclin E (Homo sapiens, UniProt Q00526); assay: HotSpot kinase assay; type: biochemical; settings: read-out: % Enzyme Activity (relative to DMSO controls)
T8 construct: purchased Reaction Biology Corporation

CHK1 = target: T9, CHK1 (Homo sapiens, UniProt O14757); assay: HotSpot kinase assay; type: biochemical; settings: read-out: % Enzyme Activity (relative to DMSO controls)
T9 construct: purchased Reaction Biology Corporation

CK1epsilon = target: T10, CK1epsilon (Homo sapiens, UniProt P49674); assay: HotSpot kinase assay; type: biochemical; settings: read-out: % Enzyme Activity (relative to DMSO controls)
T10 construct: purchased Reaction Biology Corporation
T10 sequence (P49674 whole entry): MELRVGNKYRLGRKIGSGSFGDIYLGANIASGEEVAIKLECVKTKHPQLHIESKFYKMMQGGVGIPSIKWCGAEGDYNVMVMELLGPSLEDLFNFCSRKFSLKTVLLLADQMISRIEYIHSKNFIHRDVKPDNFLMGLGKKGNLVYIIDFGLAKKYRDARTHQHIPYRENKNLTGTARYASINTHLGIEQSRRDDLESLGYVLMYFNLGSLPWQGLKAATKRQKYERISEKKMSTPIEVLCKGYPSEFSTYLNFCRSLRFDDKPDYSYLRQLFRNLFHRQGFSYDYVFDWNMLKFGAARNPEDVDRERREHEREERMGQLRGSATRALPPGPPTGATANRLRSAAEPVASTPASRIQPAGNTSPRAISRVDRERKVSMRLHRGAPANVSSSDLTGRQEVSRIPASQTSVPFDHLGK

DYRK3 = target: T11, DYRK3 (Homo sapiens, UniProt O43781); assay: HotSpot kinase assay; type: biochemical; settings: read-out: % Enzyme Activity (relative to DMSO controls)
T11 construct: purchased Reaction Biology Corporation

EPHA5 = target: T12, EPHA5 (Homo sapiens, UniProt P54756); assay: HotSpot kinase assay; type: biochemical; settings: read-out: % Enzyme Activity (relative to DMSO controls)
T12 construct: purchased Reaction Biology Corporation

ERBB4/HER4 = target: T13, ERBB4/HER4 (Homo sapiens, UniProt Q15303); assay: HotSpot kinase assay; type: biochemical; settings: read-out: % Enzyme Activity (relative to DMSO controls)
T13 construct: purchased Reaction Biology Corporation

ERN1/IRE1 = target: T14, ERN1/IRE1 (Homo sapiens, UniProt O75460); assay: HotSpot kinase assay; type: biochemical; settings: read-out: % Enzyme Activity (relative to DMSO controls)
T14 construct: purchased Reaction Biology Corporation
T14 sequence (O75460 19-977): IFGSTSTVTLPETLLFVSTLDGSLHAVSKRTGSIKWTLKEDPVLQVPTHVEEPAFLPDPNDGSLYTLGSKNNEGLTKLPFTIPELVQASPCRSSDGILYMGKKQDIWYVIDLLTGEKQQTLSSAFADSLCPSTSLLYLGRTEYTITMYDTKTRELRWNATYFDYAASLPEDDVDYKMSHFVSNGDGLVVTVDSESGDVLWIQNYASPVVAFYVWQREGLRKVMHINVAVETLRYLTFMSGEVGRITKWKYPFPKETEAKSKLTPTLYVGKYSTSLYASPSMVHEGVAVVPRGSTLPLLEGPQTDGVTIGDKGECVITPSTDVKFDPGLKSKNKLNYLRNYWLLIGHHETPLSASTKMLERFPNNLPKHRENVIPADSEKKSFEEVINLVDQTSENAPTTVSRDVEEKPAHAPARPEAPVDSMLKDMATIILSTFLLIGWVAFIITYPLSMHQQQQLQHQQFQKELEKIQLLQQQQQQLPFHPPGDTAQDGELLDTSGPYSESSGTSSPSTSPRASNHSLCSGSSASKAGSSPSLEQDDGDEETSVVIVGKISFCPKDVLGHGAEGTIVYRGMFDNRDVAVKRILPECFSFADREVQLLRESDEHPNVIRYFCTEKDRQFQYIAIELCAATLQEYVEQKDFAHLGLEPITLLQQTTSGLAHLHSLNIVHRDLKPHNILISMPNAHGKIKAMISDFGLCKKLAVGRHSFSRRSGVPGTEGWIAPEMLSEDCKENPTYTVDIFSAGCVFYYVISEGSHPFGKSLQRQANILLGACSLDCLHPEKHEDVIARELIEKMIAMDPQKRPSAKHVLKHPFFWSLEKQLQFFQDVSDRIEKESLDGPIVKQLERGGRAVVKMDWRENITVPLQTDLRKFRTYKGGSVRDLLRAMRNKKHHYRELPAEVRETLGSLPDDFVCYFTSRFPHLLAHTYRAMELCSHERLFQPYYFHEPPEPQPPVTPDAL

FLT1/VEGFR1 = target: T15, FLT1/VEGFR1 (Homo sapiens, UniProt P17948); assay: HotSpot kinase assay; type: biochemical; settings: read-out: % Enzyme Activity (relative to DMSO controls)
T15 construct: purchased Reaction Biology Corporation

GSK3b = target: T16, GSK3b (Homo sapiens, UniProt P49841); assay: biochemical; settings: read-out: % Enzyme Activity (relative to DMSO controls)
T16 construct: purchased Reaction Biology Corporation

HIPK4 = target: T17, HIPK4 (Homo sapiens, UniProt Q8NE63); assay: HotSpot kinase assay; type: biochemical; settings: read-out: % Enzyme Activity (relative to DMSO controls)
T17 construct: purchased Reaction Biology Corporation

JAK2 = target: T18, JAK2 (Homo sapiens, UniProt O60674); assay: HotSpot kinase assay; type: biochemical; settings: read-out: % Enzyme Activity (relative to DMSO controls)
T18 construct: purchased Reaction Biology Corporation

JAK3 = target: T19, JAK3 (Homo sapiens, UniProt P52333); assay: HotSpot kinase assay; type: biochemical; settings: read-out: % Enzyme Activity (relative to DMSO controls)
T19 construct: purchased Reaction Biology Corporation

MARK3 = target: T20, MARK3 (Homo sapiens, UniProt P27448); assay: HotSpot kinase assay; type: biochemical; settings: read-out: % Enzyme Activity (relative to DMSO controls)
T20 construct: purchased Reaction Biology Corporation
T20 sequence (P27448 whole entry): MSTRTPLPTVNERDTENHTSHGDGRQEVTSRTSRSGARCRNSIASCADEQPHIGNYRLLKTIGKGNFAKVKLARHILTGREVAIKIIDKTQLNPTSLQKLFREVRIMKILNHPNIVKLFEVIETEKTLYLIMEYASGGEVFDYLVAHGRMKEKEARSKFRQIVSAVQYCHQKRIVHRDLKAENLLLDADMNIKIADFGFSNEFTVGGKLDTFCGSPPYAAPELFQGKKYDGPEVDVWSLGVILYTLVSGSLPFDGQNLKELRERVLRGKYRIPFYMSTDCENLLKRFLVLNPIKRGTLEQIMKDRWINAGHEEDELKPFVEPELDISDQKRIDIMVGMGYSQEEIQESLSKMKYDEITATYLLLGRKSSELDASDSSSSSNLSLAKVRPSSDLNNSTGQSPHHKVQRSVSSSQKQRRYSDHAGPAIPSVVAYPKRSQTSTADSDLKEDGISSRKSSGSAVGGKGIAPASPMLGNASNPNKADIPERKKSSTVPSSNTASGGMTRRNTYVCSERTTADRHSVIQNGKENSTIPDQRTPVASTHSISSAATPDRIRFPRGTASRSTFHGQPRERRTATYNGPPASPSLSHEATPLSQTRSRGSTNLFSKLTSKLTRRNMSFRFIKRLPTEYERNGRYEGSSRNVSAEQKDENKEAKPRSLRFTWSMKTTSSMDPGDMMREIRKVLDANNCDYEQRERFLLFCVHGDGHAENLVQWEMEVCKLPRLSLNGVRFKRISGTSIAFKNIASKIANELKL

MEK3 = target: T21, MEK3 (Homo sapiens, UniProt P46734); assay: HotSpot kinase assay; type: biochemical; settings: read-out: % Enzyme Activity (relative to DMSO controls)
T21 construct: purchased Reaction Biology Corporation
T21 sequence (P46734 whole entry): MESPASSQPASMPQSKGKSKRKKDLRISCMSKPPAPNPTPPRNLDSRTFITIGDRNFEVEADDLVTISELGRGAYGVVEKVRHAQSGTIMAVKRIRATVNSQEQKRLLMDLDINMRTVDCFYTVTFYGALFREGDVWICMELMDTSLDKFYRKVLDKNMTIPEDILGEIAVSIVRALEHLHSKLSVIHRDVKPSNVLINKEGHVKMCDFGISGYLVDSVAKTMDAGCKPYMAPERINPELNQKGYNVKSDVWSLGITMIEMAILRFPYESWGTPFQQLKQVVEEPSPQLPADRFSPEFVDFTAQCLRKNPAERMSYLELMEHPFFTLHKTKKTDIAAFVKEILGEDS

MKK4 = target: T22, MKK4 (Homo sapiens, UniProt P45985); assay: HotSpot kinase assay; type: biochemical; settings: read-out: % Enzyme Activity (relative to DMSO controls)
T22 construct: purchased Reaction Biology Corporation
T22 sequence (P45985 whole entry): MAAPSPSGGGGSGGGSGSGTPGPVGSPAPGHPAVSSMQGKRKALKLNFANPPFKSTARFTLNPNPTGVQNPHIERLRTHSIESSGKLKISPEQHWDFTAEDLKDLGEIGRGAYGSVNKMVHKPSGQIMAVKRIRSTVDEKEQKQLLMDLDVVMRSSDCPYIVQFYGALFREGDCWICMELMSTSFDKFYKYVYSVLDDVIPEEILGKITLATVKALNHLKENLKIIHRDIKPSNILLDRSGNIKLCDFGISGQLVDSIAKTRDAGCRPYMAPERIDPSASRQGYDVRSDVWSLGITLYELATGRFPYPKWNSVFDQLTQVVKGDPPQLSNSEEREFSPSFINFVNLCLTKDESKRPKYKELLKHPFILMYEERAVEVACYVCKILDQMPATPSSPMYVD

MRCKa/CDC42BPA = target: T23, MRCKa/CDC42BPA (Homo sapiens, UniProt Q5VT25); assay: HotSpot kinase assay; type: biochemical; settings: read-out: % Enzyme Activity (relative to DMSO controls)
T23 construct: purchased Reaction Biology Corporation

MST3/STK24 = target: T24, MST3/STK24 (Homo sapiens, UniProt Q9Y6E0); assay: HotSpot kinase assay; type: biochemical; settings: read-out: % Enzyme Activity (relative to DMSO controls)
T24 construct: purchased Reaction Biology Corporation
T24 sequence (Q9Y6E0 whole entry): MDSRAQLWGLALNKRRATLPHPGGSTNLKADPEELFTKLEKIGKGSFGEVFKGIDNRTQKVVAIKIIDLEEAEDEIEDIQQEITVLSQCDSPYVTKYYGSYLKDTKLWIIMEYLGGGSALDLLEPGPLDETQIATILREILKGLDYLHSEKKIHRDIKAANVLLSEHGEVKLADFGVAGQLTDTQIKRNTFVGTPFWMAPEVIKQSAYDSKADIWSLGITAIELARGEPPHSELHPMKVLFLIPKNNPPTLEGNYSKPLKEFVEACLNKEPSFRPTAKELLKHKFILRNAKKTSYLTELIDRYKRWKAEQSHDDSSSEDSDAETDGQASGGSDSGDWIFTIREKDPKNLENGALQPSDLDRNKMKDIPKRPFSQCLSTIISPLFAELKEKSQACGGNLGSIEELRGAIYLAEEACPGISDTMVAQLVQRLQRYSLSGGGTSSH

NLK = target: T25, NLK (Homo sapiens, UniProt Q9UBE8); assay: HotSpot kinase assay; type: biochemical; settings: read-out: % Enzyme Activity (relative to DMSO controls)
T25 construct: purchased Reaction Biology Corporation

PAK5 = target: T26, PAK5 (Homo sapiens, UniProt Q9P286); assay: HotSpot kinase assay; type: biochemical; settings: read-out: % Enzyme Activity (relative to DMSO controls)
T26 construct: purchased Reaction Biology Corporation

PASK = target: T27, PASK (Homo sapiens, UniProt Q96RG2); assay: HotSpot kinase assay; type: biochemical; settings: read-out: % Enzyme Activity (relative to DMSO controls)
T27 construct: purchased Reaction Biology Corporation

PKCzeta = target: T28, PKCzeta (Homo sapiens, UniProt Q05513); assay: HotSpot kinase assay; type: biochemical; settings: read-out: % Enzyme Activity (relative to DMSO controls)
T28 construct: purchased Reaction Biology Corporation
T28 sequence (Q05513 whole entry): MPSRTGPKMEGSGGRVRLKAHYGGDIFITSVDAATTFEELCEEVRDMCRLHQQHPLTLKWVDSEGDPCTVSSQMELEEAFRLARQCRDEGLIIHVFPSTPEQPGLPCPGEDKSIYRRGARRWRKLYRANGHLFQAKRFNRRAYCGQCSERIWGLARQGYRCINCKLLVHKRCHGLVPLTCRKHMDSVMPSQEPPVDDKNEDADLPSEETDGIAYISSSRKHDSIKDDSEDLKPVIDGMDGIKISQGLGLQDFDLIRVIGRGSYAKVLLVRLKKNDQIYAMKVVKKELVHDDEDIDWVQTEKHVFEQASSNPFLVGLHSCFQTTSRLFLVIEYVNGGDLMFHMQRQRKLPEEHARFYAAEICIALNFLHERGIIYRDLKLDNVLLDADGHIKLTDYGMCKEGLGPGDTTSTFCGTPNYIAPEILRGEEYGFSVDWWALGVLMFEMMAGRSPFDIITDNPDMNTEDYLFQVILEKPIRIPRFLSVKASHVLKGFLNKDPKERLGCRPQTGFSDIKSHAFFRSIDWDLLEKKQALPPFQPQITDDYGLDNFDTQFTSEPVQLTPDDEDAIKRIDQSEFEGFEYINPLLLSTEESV

SLK/STK2 = target: T29, SLK/STK2 (Homo sapiens, UniProt Q9H2G2); assay: HotSpot kinase assay; type: biochemical; settings: read-out: % Enzyme Activity (relative to DMSO controls)
T29 construct: purchased Reaction Biology Corporation

TSSK3/STK22C = target: T30, TSSK3/STK22C (Homo sapiens, UniProt Q96PN8); assay: HotSpot kinase assay; type: biochemical; settings: read-out: % Enzyme Activity (relative to DMSO controls)
T30 construct: purchased Reaction Biology Corporation
T30 sequence (Q96PN8 whole entry): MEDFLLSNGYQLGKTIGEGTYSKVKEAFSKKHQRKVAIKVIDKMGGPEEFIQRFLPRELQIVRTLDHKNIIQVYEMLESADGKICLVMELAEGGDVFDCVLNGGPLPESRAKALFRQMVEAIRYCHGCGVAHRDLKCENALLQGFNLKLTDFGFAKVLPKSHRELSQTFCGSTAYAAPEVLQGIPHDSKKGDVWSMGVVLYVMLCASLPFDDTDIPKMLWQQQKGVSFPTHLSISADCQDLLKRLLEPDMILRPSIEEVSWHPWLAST

TXK = target: T31, TXK (Homo sapiens, UniProt P42681); assay: HotSpot kinase assay; type: biochemical; settings: read-out: % Enzyme Activity (relative to DMSO controls)
T31 construct: purchased Reaction Biology Corporation

TYK2 = target: T32, TYK2 (Homo sapiens, UniProt P29597); assay: HotSpot kinase assay; type: biochemical; settings: read-out: % Enzyme Activity (relative to DMSO controls)
T32 construct: purchased Reaction Biology Corporation

HSV-1 K26GFP = assay: capsid entry, confocal imaging, HaCat cells; type: cell-based; settings: 1 h post-temperature shift; CIMSS 10 μM, antibody 2 μg/ml
Procedure: To quantify viral entry, cells were synchronously infected by allowing virus to bind to cells at 4°C for 4 h, washed, and then transferred to 37 °C. CIMSS or control DMSO was added at the time of temperature shift. At indicated times post-temperature shift, the cells were treated with a low pH buffer to inactivate virus that had not penetrated, washed, overlaid with medium containing methyl cellulose and viral plaques were counted at 48 h. Entry was also assessed by immunoblotting nuclear extracts for VP16. […] Nuclear extracts were prepared after 1 h and analyzed by western blot with antibodies targeting VP16, histone H1 and golgin-97[5]. The non-nuclear fraction was also probed for golgin-97 as a positive control. […] After 1 or 4 h of incubation, the cells were fixed. Plasma membranes were stained using Image -IT^TM LIVE Plasma Membrane kit and nuclei were stained with DAPI (Thermo Fisher Scientific, Cat 134406). The percentage of GFP + nuclei was determined by counting ~200 cells over 3–4 fields. Images were obtained with Leica SP8 microscope (objective 63 × 1.4); xz images were captured with optical slice 0.6 µm, 25–30 slices per image.

HSV-2(G) = assay: HSV binding assay (gD western blot), HaCat cells; type: cell-based; settings: 10 μM, 4 h at 4 °C
Procedure: After 48 h incubation, plaques were counted by immunoassay using an anti–human IgG antibody peroxidase conjugate (PA1-86064, Thermo Fisher)[33]. […] Western blots were prepared and probed for gD as a marker of bound virus and β-actin as a control.

## CO[C@@H]1[C@H](N(C)C(=O)CCC(=O)NCc2cn(CCCS(=O)(=O)O)nn2)C[C@H]2O[C@]1(C)n1c3ccccc3c3c4c(c5c6ccccc6n2c5c31)C(=O)NC4 [CIMSS]
Aurora B
  remaining activity at 10 µM: 2.85%
AURORA C
  remaining activity at 10 µM: 2.59%
BMX/ETK
  remaining activity at 10 µM: 2.19%
BTK
  remaining activity at 10 µM: 6.64%
CDK1/cyclin B
  remaining activity at 10 µM: 13.6%
CDK16/cyclin Y (PCTAIRE)
  remaining activity at 10 µM: 76.6%
CDK2/cyclin O
  remaining activity at 10 µM: 4.97%
CDK3/cyclin E
  remaining activity at 10 µM: 13.9%
CHK1
  remaining activity at 10 µM: 4.66%
CK1epsilon
  remaining activity at 10 µM: 38.8%
DYRK3
  remaining activity at 10 µM: 28.2%
EPHA5
  remaining activity at 10 µM: 52.7%
ERBB4/HER4
  remaining activity at 10 µM: 25%
ERN1/IRE1
  remaining activity at 10 µM: 8.49%
FLT1/VEGFR1
  remaining activity at 10 µM: 2.92%
GSK3b
  remaining activity at 10 µM: 2.85%
HIPK4
  remaining activity at 10 µM: 10.7%
JAK2
  remaining activity at 10 µM: 1.13%
JAK3
  remaining activity at 10 µM: 0.97%
MARK3
  remaining activity at 10 µM: 1.8%
MEK3
  remaining activity at 10 µM: 49.3%
MKK4
  remaining activity at 10 µM: 99%
MRCKa/CDC42BPA
  remaining activity at 10 µM: 71.3%
MST3/STK24
  remaining activity at 10 µM: 16.6%
NLK
  remaining activity at 10 µM: 73%
PAK5
  remaining activity at 10 µM: 7.72%
PASK
  remaining activity at 10 µM: 41.6%
PKCzeta
  remaining activity at 10 µM: 55.8%
SLK/STK2
  remaining activity at 10 µM: 6.42%
TSSK3/STK22C
  remaining activity at 10 µM: 62.2%
TXK
  remaining activity at 10 µM: 3.64%
TYK2
  remaining activity at 10 µM: 6.35%
HSV-1 K26GFP
  percentage of GFP + cells: significantly decreased
HSV-2(G)
  HSV binding to cells: did not block
